This is an account of results in ChEMBL document CHEMBL1201862, “PubChem BioAssay data set” (2004).

Among the test systems are A498; NCI-H23; K562; 786-0; HT-29; NCI-H460; RPMI-8226; UACC-257; OVCAR-3; SK-MEL-5; SK-MEL-28; MDA-N; HOP-92; HCT-116; COLO 205; DU-145; SK-MEL-2; OVCAR-4; SR.
What all share (experiment): NCI anticancer screen, dose series, 48 h

Molecules are shown by their SMILES.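 Assay format: 96-well plates, 48-hour exposure. GI50: concentration for 50% inhibition of growth.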 Activity calls are given as the source filed them. Rule as the data show it: active = GI50 up to about 1.1 µM and inactive = higher.

Consider `O=C(OCC12CC3CC(CC(C3)C1)C2)c1ccc(NCc2cc(O)ccc2O)cc1`, for which the GI50 in the assay on A498 was 3.72 µM (inactive); in the assay on NCI-H23, 1.47 µM (inactive); with K562, 0.431 µM (active); in the assay on 786-0 it was 0.708 µM (active); in the assay with HT-29, 1.47 µM (inactive); in the assay on NCI-H460, 2.57 µM (inactive). In addition, the GI50 in the assay with RPMI-8226 was 0.199 µM (active); in the assay on UACC-257, 1.64 µM (inactive); in the assay with OVCAR-3, 0.305 µM (active); in the assay on SK-MEL-5 it was 1.32 µM (inactive); with SK-MEL-28, 1.54 µM (inactive); in the assay with MDA-N, 2.81 µM (inactive). Further, the GI50 was 3.66 µM (inactive) in the assay with HOP-92; 2.26 µM (inactive) with HCT-116; 0.681 µM (active) in the assay with COLO 205; 3.54 µM (inactive) in the assay on DU-145; 2.5 µM (inactive) in the assay on SK-MEL-2; 1.05 µM (active) with OVCAR-4.
Regarding `N#CC12C(=O)N3C(=NC(c4ccccc4)NC3c3ccccc3)C1(C#N)C(c1ccccc1)NC1=C2CCC1` (stereo not given), the GI50 in the assay on A498 is > 100 µM (inactive); in the assay on NCI-H23 it was > 100 µM (inactive); in the assay on K562 it was 63.5 µM (inactive); in the assay with 786-0, > 100 µM (inactive); in the assay with HT-29 it was > 100 µM (inactive); in the assay with NCI-H460, > 100 µM (inactive). Besides, the GI50 in the assay on RPMI-8226, with UACC-257, in the assay on OVCAR-3, with SK-MEL-5, in the assay on SK-MEL-28 and with MDA-N was > 100 µM (inactive) each time. Further, the GI50 in the assay with HOP-92, in the assay on HCT-116, with COLO 205, in the assay on DU-145, in the assay on SK-MEL-2 and with OVCAR-4 was > 100 µM (inactive) each time.
For `CCC1CCC2c3c([nH]c4ccccc34)C3C(=O)N(c4ccc(OC)cc4)C(=O)C3C2C1` (stereo not given), the GI50 in the assay with NCI-H23 was > 100 µM (inactive); with K562, 22 µM (inactive); in the assay on 786-0 it was > 100 µM (inactive); in the assay on HT-29, 42.3 µM (inactive); with NCI-H460, 30.4 µM (inactive); with RPMI-8226 it was 55 µM (inactive). Moreover, the GI50 is > 100 µM (inactive) in the assay with UACC-257; 22.3 µM (inactive) in the assay with OVCAR-3; > 100 µM (inactive) with SK-MEL-5; 63.8 µM (inactive) with SK-MEL-28; 55.7 µM (inactive) in the assay with MDA-N; 20 µM (inactive) with HCT-116. The GI50 was 74.1 µM (inactive) in the assay with COLO 205, > 100 µM (inactive) in the assay with DU-145, 14.9 µM (inactive) in the assay on OVCAR-4 and 16.1 µM (inactive) in the assay on SR.
As to `O=c1c(Cc2ccccc2Cc2c(O)oc3ccccc3c2=O)c(O)oc2ccccc12`, the GI50 in the assay on A498, in the assay with NCI-H23, with K562, in the assay on 786-0, with HT-29 and with NCI-H460 was > 100 µM (inactive) each time. Moreover, the GI50 in the assay on RPMI-8226, in the assay on UACC-257, in the assay on OVCAR-3, in the assay on SK-MEL-5, in the assay on SK-MEL-28 and with MDA-N was > 100 µM (inactive) throughout. The GI50 with HOP-92, in the assay on HCT-116, with COLO 205, in the assay on DU-145, in the assay with SK-MEL-2 and in the assay with OVCAR-4 was > 100 µM (inactive) throughout.
